US6479487B1, “6, 9-disubstituted 2-[trans-(4-aminocyclohexyl)amino] purines” (Aventis Pharmaceuticals Inc., priority 1998, dated 2002)
pIC50: −log10 of the molar value. “And” between values parts separate entries of the source, which are not always exact repeats. Equal entries are not always repeated. Structures can show the parent of a compound that is named as a salt. Where two headings read alike, the source gives them in different places.

Assays:
[1] = molecular target: T1, cdk2/cyclin E (Homo sapiens, UniProt P24941); experiment: Cyclin-Dependent Kinase 2 Assay (cdk2/cyclin E, GST-Rb substrate); type: biochemical; conditions: recombinant cdk2/cyclin E, 10 μM ATP, 30 min at 30° C., several values in a cell = separate determinations, read-out: CDK-2 Inhibition IC50
T1 construct: made in house; host or cells: insect cells (baculovirus co-infection)
Experimental: Substrate: GST-Rb as described above for cdk4/cyclin D1
Assay conditions for cdk2/cyclin E were identical to those for cdk4/cyclin D1 including the substrate. The concentration of recombinant cdk2/cyclin E in the assay was 0.1 μg per 100 μl assay. Incubation was for 30 min at 30° C.

[2] = molecular target: T2, cdk4/cyclin D1 (Homo sapiens, UniProt P11802); experiment: Cyclin-dependent Kinase 4 Assay (cdk4/cyclin D1, GST-Rb substrate); type: biochemical; conditions: cdk4/cyclin D1 insect cell lysate, 10 μM ATP, 30 min at 37° C., several values = separate determinations, read-out: CDK4 Inhibition IC50
T2 construct: made in house; host or cells: Sf9 insect cells (Bac-to-Bac baculovirus, pFastBac)
In short: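 Insect-cell lysate of coexpressed cdk4/cyclin D1 (0.1 μg) acts on GST-Rb (0.5 μg) bound to glutathione-Sepharose, in 50 mM HEPES pH 7.5, 10 mM MgCl2, 1 mM EGTA. Reaction runs 30 min at 37 °C, then is stopped by filtration and TNEN washes. Rb phosphorylation read by scintillation counting; IC50 derived.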

[3] = system: MDA-MB-231; experiment: In vitro tumor cell proliferation, MDA-MB-231; type: cell-based, human; conditions: sulforhodamine B or CyQUANT assay, many values given with an undefined *, read-out: In vitro Tumor Cell Proliferation (IC50, μM) Breast MDA-MB-231
In short: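 Cells plated overnight at 37 °C, then exposed to drug for 3 days, refed with fresh drug and incubated 4 more days. Read-out by sulforhodamine B staining after TCA fixation; alternatively, CyQUANT after 3-day drug exposure and freezing at −80 °C.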

[4] = system: MDA-MB-435; experiment: In vitro tumor cell proliferation, MDA-MB-435; type: cell-based; conditions: values given with an undefined *, read-out: In vitro Tumor Cell Proliferation (IC50, μM) Breast MDA-MB-435
In short: (§1)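 Tumor cells were seeded overnight at 37° C, then exposed to drug diluted in culture medium for 3 days, refed with fresh drug-containing medium and kept 4 more days. Cells were fixed with 10% trichloroacetic acid and stained with 0.4% sulforhodamine B; alternatively, CyQUANT read proliferation after 3 days' drug exposure.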

[5] = system: HT-29; experiment: In vitro tumor cell proliferation, HT-29; type: cell-based, human; conditions: many values given with an undefined *, read-out: In vitro Tumor Cell Proliferation (IC50, μM) Colon HT-29
In short: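 HT-29 cells seeded overnight at 37° C, then exposed to drug for 3 days, refed with fresh drug-containing medium for 4 more days. Proliferation read by sulforhodamine B staining after TCA fixation; alternatively by CyQUANT after freezing plates at −80° C following 3 days' drug exposure.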

[6] = system: Colo-205; experiment: In vitro tumor cell proliferation, Colo-205; type: cell-based; conditions: values given with an undefined *, read-out: In vitro Tumor Cell Proliferation (IC50, μM) Colon Colo-205
In short: as §1

[7] = system: A549; experiment: In vitro tumor cell proliferation, A549; type: cell-based, human; conditions: many values given with an undefined *, read-out: In vitro Tumor Cell Proliferation (IC50, μM) Lung A549
In short: as §1

[8] = system: DMS-114; experiment: In vitro tumor cell proliferation, DMS-114; type: cell-based, human; conditions: many values given with an undefined *, read-out: In vitro Tumor Cell Proliferation (IC50, μM) Lung DMS-114
In short: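 Human small cell lung carcinoma DMS-114 cells plated overnight, then drug-treated for 3 days, medium and drug renewed, and incubated 4 more days. Growth read by sulforhodamine B staining after TCA fixation; alternatively by CyQUANT after 3 days' drug exposure and freezing at −80 °C.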

[9] = system: PC-3; experiment: In vitro tumor cell proliferation, PC-3; type: cell-based, human; conditions: many values given with an undefined *, read-out: In vitro Tumor Cell Proliferation (IC50, μM) Prostate PC-3
In short: as §1

[10] = system: DU145; experiment: In vitro tumor cell proliferation, DU145; type: cell-based, human; conditions: many values given with an undefined *, read-out: In vitro Tumor Cell Proliferation (IC50, μM) Prostate DU145
In short: as §1

[11] = Homo sapiens, MDA-MB-231, MDA-MB-231
[12] = Homo sapiens, MDA-MB-435, MDA-MB-435
[13] = Homo sapiens, COLO 205, Colo-205

T2 sequence (P11802 whole entry): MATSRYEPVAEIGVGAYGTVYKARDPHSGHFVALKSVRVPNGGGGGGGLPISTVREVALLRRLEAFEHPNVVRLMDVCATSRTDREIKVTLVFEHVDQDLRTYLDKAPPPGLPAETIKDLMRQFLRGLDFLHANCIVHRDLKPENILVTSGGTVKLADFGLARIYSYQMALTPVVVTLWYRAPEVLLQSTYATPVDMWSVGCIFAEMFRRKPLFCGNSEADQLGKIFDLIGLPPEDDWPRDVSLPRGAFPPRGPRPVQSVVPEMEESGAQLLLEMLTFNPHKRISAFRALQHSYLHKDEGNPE
T2 sequence (P24385 whole entry partner): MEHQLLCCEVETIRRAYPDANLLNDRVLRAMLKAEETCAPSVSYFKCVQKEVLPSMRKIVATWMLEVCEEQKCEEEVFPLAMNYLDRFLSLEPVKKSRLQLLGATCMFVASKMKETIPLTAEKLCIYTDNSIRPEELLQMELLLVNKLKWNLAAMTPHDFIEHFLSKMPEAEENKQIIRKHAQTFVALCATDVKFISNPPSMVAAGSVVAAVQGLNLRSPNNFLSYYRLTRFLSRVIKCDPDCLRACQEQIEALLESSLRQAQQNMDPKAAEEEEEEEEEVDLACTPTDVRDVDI

Row | pIC50 [1] | pIC50 [2] | IC50 [3, 11] [µM] | IC50 [4, 12] [µM] | IC50 ([5]; Homo sapiens, HT-29, HT-29) [µM] | IC50 [6, 13] [µM] | IC50 ([7]; Homo sapiens, A549, A549) [µM] | IC50 ([8]; Homo sapiens, DMS-114, DMS-114) [µM] | IC50 ([9]; Homo sapiens, PC-3, PC-3) [µM] | IC50 ([10]; Homo sapiens, DU-145, DU145) [µM] | IC50 ([3]; MDA-MB-231, trihydrochloride) | IC50 ([4]; MDA-MB-435, trihydrochloride) | IC50 ([5]; HT-29, trihydrochloride) | IC50 ([6]; Colo-205, trihydrochloride) | IC50 ([7]; A549, trihydrochloride) | IC50 ([8]; DMS-114, trihydrochloride) | IC50 ([10]; DU145, trihydrochloride) | IC50 ([9]; PC-3) | Structure (SMILES) | further results
1 | 6.16 | 5.28 | 3 | 3.4 | 3.2 | 1.7 | 1.3 | 1.3 | 2.3 | 2.7 |  |  |  |  |  |  |  |  | COc1ccc(CNc2nc(N[C@H]3CC[C@H](N)CC3)nc3c2ncn3C(C)C)cc1 [Example 37, 2-[Trans-(4-aminocyclohexyl)amino]-6-[(4-methoxybenzyl)amino]-9-(2-propyl)purine dihydrochloride] | IC50 ([4]; MDA-MB-435, dihydrochloride): 3.2 µM and 2.7 µM; IC50 ([5]; HT-29, dihydrochloride): 1.8 µM and 2.5 µM; IC50 ([6]; Colo-205, dihydrochloride): 1.6 µM and 1.3 µM; IC50 ([8]; DMS-114, dihydrochloride): 1.7 µM and 1.5 µM; IC50 ([9]; PC-3, dihydrochloride): 2.8 µM and 2.5 µM; IC50 ([10]; DU145, dihydrochloride): 2.6 µM and 3 µM
2 | 6.60 and 6.05 | 5.35 and 5.57 | 0.62 | 0.84 | 0.73 | 0.43 | 0.33 | 0.74 | 0.69 | 0.59 | 0.7 µM | 0.91 µM | 0.62 µM | 0.45 µM | 0.39 µM | 0.64 µM | 0.6 µM |  | N[C@H]1CC[C@H](Nc2nc(NC3CCN(Cc4ccccc4OC(F)(F)F)CC3)c3ncn(C4CCCC4)c3n2)CC1 [Example 147-ab, 2-[Trans-(4-aminocyclohexyl)amino]-6-[4-[1-(2-trifluoromethoxybenzyl)]piperidinylamino]-9-cyclopentylpurine trihydrochloride] | 
3 | 6.64 and 6.89 and 6.47 | 5.64 | 0.2 | 0.24 | 0.22 | 0.16 | 0.15 | 0.28 | 0.16 | 0.16 |  |  |  |  |  |  |  | 0.22 µM | Cc1ccccc1CN1CCC(Nc2nc(N[C@H]3CC[C@H](N)CC3)nc3c2ncn3C2CCCC2)CC1 [Example 44, 2-[Trans-(4-aminocyclohexyl)amino]-6-[4-(1-(2-methylbenzyl))piperidinylamino]-9-cyclopentylpurine] | IC50 ([3]; MDA-MB-231): 0.22 µM; IC50 ([4]; MDA-MB-435): 0.27 µM; IC50 ([6]; Colo-205): 0.17 µM; IC50 ([7]; A549): 0.09 µM; IC50 ([8]; DMS-114): 0.21 µM
4 |  | 4.19 |  |  |  |  |  |  |  |  | 0.47 µM and 0.42 µM | 0.69 µM and 0.94 µM | 0.44 µM and 0.34 µM | 0.38 µM and 0.52 µM | 0.23 µM and 0.25 µM | 0.34 µM and 0.36 µM | 0.69 µM and 0.58 µM | 0.66 µM | N[C@H]1CC[C@H](Nc2nc(NC3CCN(Cc4cc(C(F)(F)F)cc(C(F)(F)F)c4)CC3)c3ncn(C4CCCC4)c3n2)CC1 [Example 147-d, 2-[Trans-(4-aminocyclohexyl)amino]-6-[4-[1-[3,5-bis(trifluoromethyl)benzyl]]piperidinylamino]-9-cyclopentylpurine trihydrochloride] | pIC50 ([1]; trihydrochloride): 6.05 and 6.28 and 6.12
5 |  |  |  |  |  |  |  |  |  |  | 2.5 µM and 3.1 µM | 5.8 µM and 4.9 µM | 2.8 µM and 2.3 µM | 4 µM and 2.9 µM | 4.1 µM and 3.6 µM | 2.7 µM and 2.9 µM | 4.4 µM and 4.3 µM |  | N[C@H]1CC[C@H](Nc2nc(NC3CCN(Cc4ccc(C(F)(F)F)cc4C(F)(F)F)CC3)c3ncn(C4CCCC4)c3n2)CC1 [Example 147-aa, 2-[Trans-(4-aminocyclohexyl)amino]-6-[4-[1-(2,4-bis-trifluoromethylbenzyl)]piperidinylamino]-9-cyclopentylpurine trihydrochloride] | pIC50 ([1]; trihydrochloride): 5.80 and 5.59; pIC50 ([2]; trihydrochloride): 5.00 and 5.08; IC50 ([9]; PC-3, trihydrochloride): 3.8 µM and 4.6 µM
6 | 6.49 | 5.42 and 5.41 | 0.85 | 0.75 | 0.72 | 0.59 | 0.44 | 1 | 0.54 | 0.49 | 0.67 µM | 0.92 µM | 0.6 µM | 0.62 µM | 0.45 µM | 0.7 µM | 0.53 µM |  | N[C@H]1CC[C@H](Nc2nc(NC3CCN(Cc4ccc(Cl)cc4Cl)CC3)c3ncn(C4CCCC4)c3n2)CC1 [Example 147-x, 2-[Trans-(4-aminocyclohexyl)amino]-6-[4-[1-(2,4-dichlorobenzyl)]piperidinylamino]-9-cyclopentylpurine trihydrochloride] | IC50 ([9]; PC-3, trihydrochloride): 0.65 µM

Row | Structure (SMILES) | pIC50 [1] | pIC50 [2] | IC50 [3, 11] [µM] | IC50 [4, 12] [µM] | IC50 ([5]; Homo sapiens, HT-29, HT-29) [µM] | IC50 [6, 13] [µM] | IC50 ([7]; Homo sapiens, A549, A549) [µM] | IC50 ([8]; Homo sapiens, DMS-114, DMS-114) [µM] | IC50 ([9]; Homo sapiens, PC-3, PC-3) [µM] | IC50 ([10]; Homo sapiens, DU-145, DU145) [µM] | IC50 ([3]; MDA-MB-231, trihydrochloride) | IC50 ([4]; MDA-MB-435, trihydrochloride) | IC50 ([5]; HT-29, trihydrochloride) | IC50 ([6]; Colo-205, trihydrochloride) | IC50 ([7]; A549, trihydrochloride) | IC50 ([8]; DMS-114, trihydrochloride) | IC50 ([10]; DU145, trihydrochloride) | IC50 ([9]; PC-3) | further results
7 | N[C@H]1CC[C@H](Nc2nc(NC3CCN(Cc4ccc(C(F)(F)F)cc4)CC3)c3ncn(C4CCCC4)c3n2)CC1 [Example 46, 2-[Trans-(4-aminocyclohexyl)amino]-6-[4-(1-(4-trifluoromethylbenzyl))piperidinylamino]-9-cyclopentylpurine] | 6.30 and 6.35 | 4.70 |  |  |  |  |  |  |  |  |  |  |  |  |  |  |  | 0.39 µM and 0.46 µM | IC50 ([3]; MDA-MB-231): 0.46 µM and 0.53 µM; IC50 ([4]; MDA-MB-435): 0.61 µM and 0.62 µM; IC50 ([5]; HT-29): 0.53 µM and 0.44 µM; IC50 ([6]; Colo-205): 0.44 µM and 0.46 µM; IC50 ([7]; A549): 0.28 µM and 0.33 µM; IC50 ([8]; DMS-114): 0.35 µM and 0.58 µM; IC50 ([10]; DU145): 0.36 µM and 0.49 µM
